Laboratory results: patent US20100267784A1, “NOVEL 4,5-DIHYDROISOXAZOLES WITH ESTROGENIC ACTIVITY” (priority 2007, published 2010)

How the values were obtained:
[1] = target: T1, ERα (Homo sapiens, UniProt P03372); assay: ERα reporter (luciferase) transactivation assay in transfected HEK293 cells; format: cell-based; set-up: expressed in transfected cells; host or cells: HEK293; conditions: sample concentration 10 μM, 24 hours, mean of at least three independent transfections
T1 sequence (P03372 1-595): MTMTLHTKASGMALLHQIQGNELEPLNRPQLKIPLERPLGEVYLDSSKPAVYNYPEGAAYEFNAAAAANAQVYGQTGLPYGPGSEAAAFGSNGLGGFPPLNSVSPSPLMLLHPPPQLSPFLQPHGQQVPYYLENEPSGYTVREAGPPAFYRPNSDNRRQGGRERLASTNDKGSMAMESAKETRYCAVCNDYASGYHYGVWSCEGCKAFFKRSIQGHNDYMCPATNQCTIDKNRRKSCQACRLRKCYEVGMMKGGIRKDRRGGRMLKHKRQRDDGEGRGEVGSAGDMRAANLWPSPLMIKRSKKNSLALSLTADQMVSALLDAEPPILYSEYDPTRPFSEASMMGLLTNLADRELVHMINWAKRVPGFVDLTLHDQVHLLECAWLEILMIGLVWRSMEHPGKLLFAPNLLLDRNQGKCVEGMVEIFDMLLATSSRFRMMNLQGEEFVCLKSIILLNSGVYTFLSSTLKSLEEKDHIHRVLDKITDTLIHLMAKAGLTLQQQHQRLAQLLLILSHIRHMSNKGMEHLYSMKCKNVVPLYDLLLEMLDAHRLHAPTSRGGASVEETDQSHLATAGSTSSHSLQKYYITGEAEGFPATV
Procedure: (§1) Determination of the Estrogen Activity of the Compounds: Cell Culture, Transfection and Reporter Assays
(§2) All other reagents were of reagent grade from Sigma or Fluka. One day before transfection, HEK293 cells were seeded in 48-well plates (70×10^3 cells per well) in phenol-free Dulbecco's modified Eagle medium supplemented with 5% delipidated fetal bovine serum (Sigma) and antibiotics. After a medium change, the cells were transfected for 4 hours with 5 ng ERα or ERβ expression vector, 75 ng reporter plasmid pERE2TATA-LUC and 20 ng control plasmid pCMVβ by the calcium phosphate method. After transfection, the cells received fresh medium containing either vehicle (0.1% v/v) or test compound (10 μM). After 24 hours, the cells were washed, lysed and luciferase and β-galactosidase activities were determined from 20 μl of lysates with the Victor^2TM reader (PerkinElmer Wallac, Turku, Finland). […] The data are means ±SEM of at least three independent transfections.

[2] = target: ERβ (Homo sapiens, UniProt Q92731); assay: ERβ reporter (luciferase) transactivation assay in transfected HEK293 cells; format: cell-based; set-up: expressed in transfected cells; host or cells: HEK293; conditions: for ERβ receptor activation relative to 10 nM E2 corresponding 100: sample concentration 10 μM, 24 hours, mean of at least three independent transfections; for activation at 10 µM: HEK293, 24 h, read-out: ERβ receptor activation relative to 10 nM E2 corresponding 100, sample concentration 10 μM, mean of at least three independent transfections
Procedure: as §1, §2

ERβ, sequence (Q92731 whole entry): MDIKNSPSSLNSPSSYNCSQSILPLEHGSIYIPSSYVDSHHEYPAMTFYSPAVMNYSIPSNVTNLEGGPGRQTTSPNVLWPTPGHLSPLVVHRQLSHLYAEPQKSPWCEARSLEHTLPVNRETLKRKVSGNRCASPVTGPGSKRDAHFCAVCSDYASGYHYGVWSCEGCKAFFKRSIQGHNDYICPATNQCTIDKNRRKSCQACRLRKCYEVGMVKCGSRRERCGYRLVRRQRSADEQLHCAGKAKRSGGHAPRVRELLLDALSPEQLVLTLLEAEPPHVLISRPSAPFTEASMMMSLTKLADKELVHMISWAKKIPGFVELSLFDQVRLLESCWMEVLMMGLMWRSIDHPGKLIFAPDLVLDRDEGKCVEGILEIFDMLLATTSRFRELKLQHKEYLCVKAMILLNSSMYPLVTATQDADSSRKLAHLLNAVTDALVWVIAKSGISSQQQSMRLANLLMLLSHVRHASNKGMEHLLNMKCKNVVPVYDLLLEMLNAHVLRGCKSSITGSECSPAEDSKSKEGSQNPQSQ

SMILES | ERα receptor activation relative to 10 nM E2 corresponding 100 [1] [%] | ERβ receptor activation relative to 10 nM E2 corresponding 100 [2] [%] | activation at 10 µM [2] [%]
c1ccc(CCC2CC(c3ccccc3)=NO2)cc1 (single isomer, unassigned) [111b, 5-Phenethyl-3-phenyl-4,5-dihydroisoxazole] | 1.1 | −6.0 | –
Oc1cccc(C2CC(Cc3ccccc3)=NO2)c1 (stereo not shown) [82ab, 3-Benzyl-5-(3-hydroxy-phenyl)-4,5-dihydro-isoxazole] | 21.6 | – | 6.6
Oc1ccc(CCCC2=NOC(c3cccc(O)c3)C2)cc1 (single isomer, unassigned) [89b, 3-[3-(4-Hydroxy-phenyl)-propyl]-5-(3-hydroxy-phenyl)-4,5-dihydro-isoxazole] | 27.6 | 7.2 | –
Oc1ccc(CC2CC(CCCc3ccc(O)c(O)c3)=NO2)cc1 (single isomer, unassigned) [103b, 3-[3-(3,4-Dihydroxy-phenyl)-propyl]-5-(4-hydroxy-benzyl)-4,5-dihydro-isoxazole] | 1.4 | −0.7 | –
COc1ccc(CCCC2=NOC(c3ccccc3)C2)cc1 (single isomer, unassigned) [72a, 3-[3-(4-Methoxy-phenyl)-propyl]-5-phenyl-4,5-dihydroisoxazole] | 9.2 | −5.8 | –
c1ccc(CCC2=NOC(Cc3cccc4ccccc34)C2)cc1 (single isomer, unassigned) [67b, 5-naphthalen-1-yl-methyl-3-phenethyl-4,5-dihydroisoxazole] | 17.2 | 6.5 | –
CC1(c2ccccc2)CC(CCCc2ccccc2)=NO1 (stereo not shown) [115ab, 5-Methyl-5-phenyl-3-(3-phenyl-propyl)-4,5-dihydro-isoxazole] | 69.5 | – | 15.5
Oc1ccc(CC2=NOC(c3cccc(O)c3)C2)cc1 (single isomer, unassigned) [83b, 3-(4-Hydroxy-benzyl)-5-(3-hydroxy-phenyl)-4,5-dihydro-isoxazole] | 3.6 | 41.3 | –
Oc1ccc(CC2CC(CCc3ccccc3O)=NO2)cc1 (single isomer, unassigned) [95b, 5-(4-Hydroxy-benzyl)-3-[2-(2-hydroxy-phenyl)-ethyl]-4,5-dihydro-isoxazole] | 6.2 | 0.6 | –
c1ccc(CCC2=NOC(Cc3ccc4ccccc4c3)C2)cc1 (single isomer, unassigned) [68b, 5-naphthalen-2-yl-methyl-3-phenethyl-4,5-dihydroisoxazole] | 13.0 | 3.8 | –
Oc1ccc(CCCC2=NOC(Cc3ccccc3)C2)cc1 (single isomer, unassigned) [99a, 5-Benzyl-3-[3-(4-hydroxy-phenyl)-propyl]-4,5-dihydro-isoxazole] | 153.7 | 78.2 | –
COc1ccccc1CC1CC(CCc2ccccc2)=NO1 (single isomer, unassigned) [64a, 5-(2-Methoxybenzyl)-3-phenethyl-4,5-dihydroisoxazole] | 18.9 | – | 9.5
Oc1ccc(CCC2=NOC(Cc3ccc(O)cc3)C2)cc1 (single isomer, unassigned) [96b, 5-(4-Hydroxy-benzyl)-3-[2-(4-hydroxy-phenyl)-ethyl]-4,5-dihydro-isoxazole] | 81.4 | 4.1 | –
c1ccc(CCC2=NOC(c3ccccc3)C2)cc1 (single isomer, unassigned) [110b, 3-Phenethyl-5-phenyl-4,5-dihydroisoxazole] | 11.2 | 8.1 | –
c1ccc(CC2CC(c3ccccc3)=NO2)cc1 (single isomer, unassigned) [107a, 5-Benzyl-3-phenyl-4,5-dihydroisoxazole] | −1.0 | – | 6.6
Oc1ccc(CCCC2=NOC(Cc3ccc(O)cc3)C2)cc1 (single isomer, unassigned) [101a, 5-(4-Hydroxy-benzyl)-3-[3-(4-hydroxy-phenyl)-propyl]-4,5-dihydro-isoxazole] | 14.4 | −0.9 | –
Oc1ccc(CCC2=NOC(Cc3ccc(O)cc3)C2)cc1 (single isomer, unassigned) [96a, 5-(4-Hydroxy-benzyl)-3-[2-(4-hydroxy-phenyl)-ethyl]-4,5-dihydro-isoxazole] | 76.2 | 12.0 | –
Oc1ccc(CC2CC(CCc3ccccc3O)=NO2)cc1 (single isomer, unassigned) [95a, 5-(4-Hydroxy-benzyl)-3-[2-(2-hydroxy-phenyl)-ethyl]-4,5-dihydro-isoxazole] | 20.4 | 2.4 | –
c1ccc(CCC2CC(c3ccccc3)=NO2)cc1 (single isomer, unassigned) [111a, 5-Phenethyl-3-phenyl-4,5-dihydroisoxazole] | 22.8 | 8.5 | –
c1ccc(CCC2=NOC(Cc3cccc4ccccc34)C2)cc1 (single isomer, unassigned) [67a, 5-naphthalen-1-yl-methyl-3-phenethyl-4,5-dihydroisoxazole] | 34.1 | – | 10.5

Results, then the compound that gave them:

ERα receptor activation relative to 10 nM E2 corresponding 100 [1] [%] | ERβ receptor activation relative to 10 nM E2 corresponding 100 [2] [%] | activation at 10 µM [2] [%] | SMILES
21.8 | 2.6 | – | Oc1ccccc1CCC1=NOC(CCc2ccccc2)C1 (single isomer, unassigned) [104b, 3[2-(2-Hydroxy-phenyl)-ethyl]-5-phenethyl-4,5-dihydro-isoxazole]
4.5 | – | 4.2 | Oc1ccccc1CCC1=NOC(CCc2ccccc2)C1 (single isomer, unassigned) [104a, 3[2-(2-Hydroxy-phenyl)-ethyl]-5-phenethyl-4,5-dihydro-isoxazole]
37.0 | – | 1.2 | c1ccc(CCC2CC(Cc3ccccc3)=NO2)cc1 (stereo not shown) [108ab, 3-Benzyl-5-phenethyl-4,5-dihydroisoxazole]
3.4 | 0.2 | – | c1ccc(CCC2=NOC(CCc3ccccc3)C2)cc1 (single isomer, unassigned) [116a, 3,5-Di-phenethyl-4,5-dihydroisoxazole]
62.8 | 15.4 | – | Oc1ccc(CCC2=NOC(CCc3ccccc3)C2)cc1 (single isomer, unassigned) [106a, 3-[2-(4-Hydroxy-phenyl)-ethyl]-5-phenethyl-4,5-dihydro-isoxazole]
68.4 | – | 1.1 | c1ccc(CCC2=NOC(Cc3ccccc3)C2)cc1 (single isomer, unassigned) [109a, 5-Benzyl-3-phenethyl-4,5-dihydroisoxazole]
3.0 | 3.6 | – | Oc1cccc(CCC2=NOC(CCc3ccccc3)C2)c1 (single isomer, unassigned) [105b, 3-[2-(3-Hydroxy-phenyl)-ethyl]-5-phenethyl-4,5-dihydro-isoxazole]
15.7 | −2.5 | – | Oc1cccc(CCC2=NOC(Cc3ccccc3)C2)c1 (single isomer, unassigned) [92b, 5-Benzyl-3-[2-(3-hydroxy-phenyl)-ethyl]-4,5-dihydro-isoxazole]
97.2 | 17.0 | – | Oc1ccc(CC2CC(CCCc3ccccc3)=NO2)cc1 (single isomer, unassigned) [100b, 5-(4-Hydroxy-benzyl)-3-(3-phenyl-propyl)-4,5-dihydro-isoxazole]
